Results reported in patent US20250177548A1, “FUSOGENIC PEPTIDE COMPOSITIONS AND METHODS OF CARGO DELIVERY” (CLEMSON UNIVERSITY, priority 2022, published 2025).
Non-standard residues stand in square brackets, D forms with d. Residues, ends and D or L forms follow the SMILES beside them.

Assays:
OVCAR3 cells = test: cellular uptake of labeled siRNA by flow cytometry; type: cell-based; settings: for uptake efficiency: OVCAR3, siNT-DY547, 4 hours
Protocol: Cellular Uptake. OVCAR3 and CAOV3 cells were prepared at 50,000 cells per well in a 24-well plate. […] Post-incubation, media was aspirated and cells were washed with 1× PBS. To counterstain the nuclei, SuperSignal NucBlue Hoechst stain (Thermo Fisher, Waltham, MA) was added to the cells for 30 minutes, followed by an additional 1×PBS wash. Subsequent imaging was performed using an EVOS FL Microscope (Thermo Fisher) at 10× magnification. For flow cytometric analysis, cells were detached, resuspended in 1× PBS, and analyzed using an Attune NXT Acoustic flow cytometer (Invitrogen, Carlsbad, CA) with the blue laser line and BL2 (574/26 nm) channel.
Cellular Uptake and Targeting Specificity. Observation of cell uptake was performed by seeding OVCAR3 and CAOV3 cells at a density of 50,000 cells per well in a 24-well plate. LHRH and LHRH-DIV3W peptides were complexed with […] as previously described and delivered to cells at 20:1 to 80:1 N:P ratios. Each cell line was incubated with tandem peptide complexes for both 4- and 24-hour treatment periods. Following incubation, cell media was removed, and cells were washed with 1× PBS prior to the addition of 500 μL of 1×PBS and SuperSignal NucBlue Hoescht 33342 nuclear stain (Thermo Fisher, Waltham, MA). Cellular imaging was completed using an EVOS FL Microscope (Thermo Fisher) at 10×, 20×, and 40× magnification. Flow cytometry was completed after cell imaging and cells were trypsinized, resuspended in 1×PBS, and analyzed with an Attune NXT Acoustic Flow Cytometer (Invitrogen) with the red laser line and RL2 […] channel.

[1] = test system: MCF10a breast epithelial cells; test: MTS cell viability assay, healthy cells; type: cell-based; settings: 48 h (FIG. 25: DIV3W-siNT complexes)
RNase A = test: gel assay of siRNA protection from RNase A degradation; type: in vitro ADME; settings: 1 hour, several N:P ratios
Protocol: Gel Shift Assays. DIVA3, DIV3H, and DIV3W (all three denoted as DIV3 (X)) peptides suspended in RNase-free water (10 μM), were thawed, and kept on ice prior to complexation with 10 μM of negative control siGENOME non-targeting siRNA #5 (siNT, GE Healthcare Dharmacon, Lafayette, CO) in RNase-free water and incubated for 20 minutes at room temperature to allow the formation of DIV3 (X)-siNT complexes. Various molar ratios of peptides were complexed with siNT at increasing N:P molar ratios to determine the minimum molar ratio necessary to completely complex free siRNAs using an electrophoretic mobility shift assay. To determine the ability of each peptide variant to protect siRNAs from degradation, DIV3 (X)-siNT complexes or siNT alone was left untreated or incubated with either 50% v/v FBS or 5 μg/mL RNase A at 37° C. for one hour. Next, complexes were dissociated using 6% sodium dodecyl sulfate (SDS). Samples were added to a 2% agarose gel and run at 100 V. Gels were stained with ethidium bromide, destained with Milli-Q water, and imaged using a ChemiDoc XRS imager (Bio-Rad, Hercules, CA).
Characterization of Nanoparticle Size and Stability. To determine the minimum molar ratio necessary to completely complex free siRNAs, increasing N:P molar ratios of LHRH, DIV3W, and LHRH-DIV3W peptide were complexed with siRNAs and electrophoresed using a electrophoretic mobility shift assay. Molar ratios, shown as N:P, are representations of the molar amine peptide content in relation to 1 mole of phosphate group siRNA content. To determine the ability of the peptides to protect siRNAs from serum- or RNase-mediated degradation, LHRH and LHRH-DIV3W complexes were formed in RNase-free water with siNT at increasing N:P molar ratios and incubated at 37° C., 5% CO2, 50% v/v FBS, 5 μg/mL RNase A, or 50% v/v RNase free water for 1 hour. Peptide/siRNA complexes were dissociated using 6% sodium dodecyl sulfate (SDS) prior to electrophoresis in a 2% agarose gel run at 100 V. Gels were stained with ethidium bromide, washed with Milli-Q water, and imaged with a BioRad ChemiDoc XRS imager (BioRad, Hercules, CA).
Peptides VA-LD and GF-LD, comprising the cleavable linker VA or GLFG, respectively, between the LHRH target sequence and the DIV3W peptide, and non targeting siRNA were electrostatically complexed at increasing N:P ratios then subjected to agarose gel electrophoresis to determine optimal siRNA binding for each peptide. […] Peptide-siRNA nanocomplexes at increasing N:P ratios for peptides for VA-LD (FIG. 30A) and GF-LD (FIG. 30C) were incubated in either Rnase A enzyme or in 50% fetal bovine serum (FBS) for 1 h, dissociated using SDS then subjected to gel electrophoresis to visualize siRNA bands. Gels showing increasing N:P ratios of peptide:siRNA for VA-LD (FIG. 30B) and GF-LD (FIG. 30D) from 20:1 to 80:1 N:P; white bands are indicative of intact siRNA

[2] = dynamic light scattering, size and zeta potential of peptide/siRNA complexes; type: physicochemical
Protocol: Dynamic Light Scattering and Transmission Electron Microscopy. DIV3 (X)-siNT complexes were prepared at 2 mg/mL in RNase-free water. Hydrodynamic size and surface charge of the peptide/siRNA complexes were determined using a Nano ZS Zetasizer (Malvern Pananalytical, Malvern, UK). All data were recorded using Malvern's Zetasizer software.
To determine nanoparticle size and zeta potential, peptides resuspended in RNase-free water (10 μM) were thawed and kept on ice prior to complexation with 10 μM of siNT in RNase-free water and incubated for 20 minutes at room temperature to form DIV3W-siNT and LHRH-DIV3W-siNT complexes. Peptide complexes were prepared at 2 mg/mL in RNase-free water. Hydrodynamic size and surface charge analysis was conducted using a Malvern Nano ZS Zetasizer (Malvern Panalytical, Malvern, UK). All data was analyzed using Malvern's Zetasizer software.

CSNK2A1 mRNA [3] = test: qPCR of CSNK2A1 mRNA in CAOV3 cells; type: cell-based; settings: CAOV3, 48 hours, 80:1
Protocol: (§1) qRT-PCR. Cells were seeded at 50,000 cells per well and treated with siRNA targeting CSNK2A1 (siCSNK2A1 #s3638, Thermo Fisher Scientific) at increasing N:P ratios and incubated for a total of 48 hours in McCoys 5A/DMEM-10% FBS. Treated cells were washed with 1×PBS at 24 hours and fresh media was added. RNAisolation was completed using a Qiagen Mini-RNeasy Kit (Qiagen, Hilden, Germany) according to the manufacturer's protocol. RNA isolation quality and quantity were measured through the Gen5 protocol using a Take3 plate (BioTek). RNA was reverse-transcribed using the QuantiTect Reverse Transcription kit (Qiagen). Quantitative real-time PCR was completed with a QuantStudio 3 qPCR system (Applied Biosystems) using Applied Biosystems TaqMan FAST Master Mix (Thermo Fisher) and CSNK2A1 (ID #Hs00751002_s1) and 18S (ID #Hs99999901_s1) predesigned TaqMan probes, according to the manufacturer's protocol.

CSNK2A1 mRNA [4] = test: qPCR of CSNK2A1 mRNA in OVCAR3 cells; type: cell-based; settings: maximum; ratio and cell line not stated at the place
Protocol: as §1
Gene and Protein Knockdown. Bioactivity of siRNAs was determined via qPCR and western blot analysis. OVCAR3 or CAOV3 cells were seeded at 50,000 cells per well as previously described and treated with siRNA targeting CSNK2A1 and siNT at N:P ratios 30:1, 40:1, 50:1, 60:1, and 70:1. LHRH-DIV3W peptide complexed with either siNT or siCSNK2A1 was incubated for a total of 48 hours in RPMI 1640/DMEM-10% FBS, with one media exchange occurring after the 24-hour timepoint. Treated cells were washed with 1×PBS at 24 hours and fresh media was added. RNA isolation was completed using a Qiagen Mini-RNeasy Kit (Qiagen, Hilden, Germany) according to the manufacturer's protocol. RNA isolation quality and quantity was measured through the Gen5 protocol using a Take3 plate (BioTek). RNA was reverse transcribed using the QuantiTect Reverse Transcription kit (Qiagen) according to the manufacturer's protocol. Quantitative real-time PCR was completed with a QuantStudio 3 qPCR system (Applied Biosystems, Waltham, MA) using Applied Biosystems TaqMan FAST Master Mix (Thermo Fisher) and CSNK2A1 (ID #Hs00751002_s1) and 18S (ID #Hs99999901_s1) predesigned TaqMan probes according to the manufacturer's protocol.

intact siRNA after incubation with RNase A (RNase A): Minimal degradation | hydrodynamic diameter ([2]; DIV3 (X) peptide/siRNA complex at 60:1 ratio): around 100 nm | zeta potential ([2]; DIV3 (X) peptide/siRNA complexes): ~30 mV
Compound: CC[C@H](C)[C@H](NC(=O)[C@H](CC(=O)O)NC(=O)[C@H](C)NC(=O)[C@@H](NC(=O)[C@@H](NC(=O)[C@H](CC(=O)O)NC(=O)[C@H](Cc1c[nH]c2ccccc12)NC(=O)[C@@H](NC(=O)[C@@H](NC(=O)[C@H](CC(=O)O)NC(=O)[C@H](C)NC(=O)[C@@H](NC(=O)[C@@H](NC(=O)[C@H](CC(=O)O)NC(=O)[C@H](C)NC(=O)[C@H](CCC(=O)O)NC(=O)[C@@H](N)Cc1c[nH]c2ccccc12)[C@@H](C)CC)C(C)C)[C@@H](C)CC)C(C)C)[C@@H](C)CC)C(C)C)C(=O)N[C@H](C(=O)N[C@@H](C)C(=O)NCC(=O)NCC(=O)NCC(=O)N[C@H](CCCNC(=N)N)C(=O)N[C@H](CCCNC(=N)N)C(=O)N[C@H](CCCNC(=N)N)C(=O)N[C@H](CCCNC(=N)N)C(=O)N[C@H](CCCNC(=N)N)C(=O)N[C@H](CCCNC(=N)N)C(=O)N[C@H](CCCNC(=N)N)C(=O)N[C@H](CCCNC(=N)N)C(=O)N[C@H](CCCNC(=N)N)C(=O)O)C(C)C [DIV3W] (H-WEADIVADIVWDIVADIVAGGG[dR][dR][dR][dR][dR][dR][dR][dR][dR]-OH)
siRNA internalization efficiency (OVCAR3 cells; OVCAR3, at each N:P ratio): approximately 65% | uptake efficiency (OVCAR3 cells; 40:1): 70.0% | uptake efficiency (OVCAR3 cells; 60:1): 69.7% | uptake efficiency (OVCAR3 cells; 80:1): 66.6% | cytotoxicity in healthy cells [1]: no cytotoxic effects were observed | CSNK2A1 mRNA knockdown, maximum (CSNK2A1 mRNA [3]): 80% | mRNA reduction (CSNK2A1 mRNA [4]): up to 94%
